According to PubChem BioAssay (NCI):
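How tested: cells in 96-well plates exposed to compound for 48 hours at five concentrations. TGI: concentration producing complete growth inhibition.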

Tests used:
Experiment in all cases: NCI anticancer screen, dose series, 48 h
HT29 colon = test system: HT29 colon
CAKI-1 renal = test system: CAKI-1 renal
HCC-2998 colon = test system: HCC-2998 colon
A549 NSCLC = test system: A549 NSCLC
SR leukemia = test system: SR leukemia
SW-620 colon = test system: SW-620 colon
SNB-75 CNS = test system: SNB-75 CNS
MDA-MB-231 breast = test system: MDA-MB-231 breast
786-0 renal = test system: 786-0 renal
MDA-MB-435 = test system: MDA-MB-435
EKVX NSCLC = test system: EKVX NSCLC
IGROV1 ovarian = test system: IGROV1 ovarian
PC-3 prostate = test system: PC-3 prostate
LOX IMVI melanoma = test system: LOX IMVI melanoma
SNB-19 CNS = test system: SNB-19 CNS
OVCAR-3 ovarian = test system: OVCAR-3 ovarian
DU-145 prostate = test system: DU-145 prostate
OVCAR-4 ovarian = test system: OVCAR-4 ovarian
KM12 colon = test system: KM12 colon
SK-MEL-2 melanoma = test system: SK-MEL-2 melanoma
NCI-H522 lung = test system: NCI-H522 lung
MALME-3M melanoma = test system: MALME-3M melanoma
NCI-H226 lung = test system: NCI-H226 lung
OVCAR-8 ovarian = test system: OVCAR-8 ovarian
HOP-62 NSCLC = test system: HOP-62 NSCLC
UACC-62 melanoma = test system: UACC-62 melanoma
UACC-257 melanoma = test system: UACC-257 melanoma
HCT-15 colon = test system: HCT-15 colon
NCI-H23 lung = test system: NCI-H23 lung
TK-10 renal = test system: TK-10 renal
COLO 205 colon = test system: COLO 205 colon
T-47D breast = test system: T-47D breast
SK-OV-3 ovarian = test system: SK-OV-3 ovarian
K-562 leukemia = test system: K-562 leukemia
CCRF-CEM leukemia = test system: CCRF-CEM leukemia
M14 melanoma = test system: M14 melanoma
A498 renal = test system: A498 renal
HS 578T breast = test system: HS 578T breast
MCF7 breast = test system: MCF7 breast
SK-MEL-28 melanoma = test system: SK-MEL-28 melanoma
HCT-116 colon = test system: HCT-116 colon
SF-539 CNS = test system: SF-539 CNS
UO-31 renal = test system: UO-31 renal
NCI-H460 lung = test system: NCI-H460 lung
HOP-92 NSCLC = test system: HOP-92 NSCLC
U251 CNS = test system: U251 CNS
OVCAR-5 ovarian = test system: OVCAR-5 ovarian
NCI/ADR-RES ovarian = test system: NCI/ADR-RES ovarian
SN12C renal = test system: SN12C renal
ACHN renal = test system: ACHN renal
RXF 393 renal = test system: RXF 393 renal
SK-MEL-5 melanoma = test system: SK-MEL-5 melanoma
BT-549 breast = test system: BT-549 breast
SF-268 CNS = test system: SF-268 CNS
MDA-N = test system: MDA-N
RPMI-8226 leukemia = test system: RPMI-8226 leukemia
SF-295 CNS = test system: SF-295 CNS

Cc1cc2nc(C#N)c(N3CCN(c4ccc([N+](=O)[O-])cc4)CC3)nc2cc1C
TGI (HT29 colon): > 100 µM
TGI (CAKI-1 renal): > 100 µM
TGI (HCC-2998 colon): > 100 µM
TGI (A549 NSCLC): > 100 µM
TGI (SR leukemia): > 100 µM
TGI (SW-620 colon): > 100 µM
TGI (SNB-75 CNS): > 100 µM
TGI (MDA-MB-231 breast): > 100 µM
TGI (786-0 renal): > 92.9 µM
TGI (MDA-MB-435): > 100 µM
TGI (EKVX NSCLC): > 100 µM
TGI (IGROV1 ovarian): > 100 µM
TGI (PC-3 prostate): > 100 µM
TGI (LOX IMVI melanoma): > 100 µM
TGI (SNB-19 CNS): > 100 µM
TGI (OVCAR-3 ovarian): > 100 µM
TGI (DU-145 prostate): > 100 µM
TGI (OVCAR-4 ovarian): > 100 µM
TGI (KM12 colon): > 100 µM
TGI (SK-MEL-2 melanoma): > 100 µM
TGI (NCI-H522 lung): > 100 µM
TGI (MALME-3M melanoma): > 100 µM
TGI (NCI-H226 lung): > 100 µM
TGI (OVCAR-8 ovarian): > 100 µM
TGI (HOP-62 NSCLC): > 100 µM
TGI (UACC-62 melanoma): > 100 µM
TGI (UACC-257 melanoma): > 100 µM
TGI (HCT-15 colon): > 100 µM
TGI (NCI-H23 lung): > 100 µM
TGI (TK-10 renal): > 100 µM
TGI (COLO 205 colon): > 100 µM
TGI (T-47D breast): > 100 µM
TGI (SK-OV-3 ovarian): > 100 µM
TGI (K-562 leukemia): > 100 µM
TGI (CCRF-CEM leukemia): > 100 µM
TGI (M14 melanoma): > 100 µM
TGI (A498 renal): > 100 µM
TGI (HS 578T breast): 95.5 µM
TGI (MCF7 breast): > 100 µM
TGI (SK-MEL-28 melanoma): > 100 µM
TGI (HCT-116 colon): > 100 µM
TGI (SF-539 CNS): 81.2 µM
TGI (UO-31 renal): > 100 µM
TGI (NCI-H460 lung): > 100 µM
TGI (HOP-92 NSCLC): > 100 µM
TGI (U251 CNS): > 100 µM
TGI (OVCAR-5 ovarian): > 100 µM
TGI (NCI/ADR-RES ovarian): > 100 µM
TGI (SN12C renal): > 100 µM
TGI (ACHN renal): > 100 µM
TGI (RXF 393 renal): > 100 µM
TGI (SK-MEL-5 melanoma): > 100 µM
TGI (BT-549 breast): > 100 µM
TGI (SF-268 CNS): > 100 µM
TGI (MDA-N): > 100 µM
TGI (RPMI-8226 leukemia): > 100 µM
TGI (SF-295 CNS): > 100 µM
